Data published in patent publication US6482939B1, “Form vi 5,6-dichloro-2-(isopropylamino)-1-(β-l-ribofuranosyl)-1h-bezimimidazole” (SmithKline Beecham Corporation, priority 1998, dated 2002).

Assays:
Type in all cases: physicochemical
[1] = Stability samples stored at elevated temperature/relative humidity, examined for crystal form; settings: 80° C./50% RH, 60° C./75% RH, 60° C./50% RH and 40° C./75% RH, sealed conditions, 2 months
[2] = Gravimetric water vapor sorption (moisture sorption isotherm)
Method: Moisture adsorption/desorption studies were conducted on a VTI vacuum microbalance at 25° C. after drying the sample at 60° C. under vacuum. Moisture adsorption was monitored under vacuum from 0 to 95% relative humidity and desorption was monitored from 95% down to 5% relative humidity. The criteria for equilibrium at a given relative humidity was less than 3 μg of weight change in 18 minutes.

[3] = Total volatile content by thermogravimetric analysis (TGA); settings: TA Instruments Hi-Res TGA 2950 thermogravimetric analyzer (FIG. 7)
Method: Accordingly, in a second aspect of the present invention there is provided the compound of formula (I) form VI, having a total volatile content of not more than 0.3% by weight (w/w) as determined by a TA Instruments Hi-Res TGA 2950 thermogravimetric analyzer (FIG. 7).
Differential scanning calorimetry (DSC) was performed on a TA Instruments DSC 2920 Differential Scanning Calorimetor equipped with a DSC auto sampler. Samples of 1 to 3 mg were crimped in standard aluminum pans with holes and heated from 25° C. to 250° C. at a rate of 10° C./minute under nitrogen purge. The percentage of total weight loss of the drug substance was determined on a TA Instruments Hi-Res TGA 2950 thermogravimetric analyzer (TGA) with a nitrogen purge.

[4] = Thermodynamic stability among crystalline forms

hygroscopicity [2] | water absorbed ([2]; equilibrated up to 95% relative humidity at ambient temperature (FIG. 8)) [%] | total volatile content [3] | thermodynamic stability relative to other forms [4] | Compound | solid form stability on storage (conversion of crystal form) [1]
– | – | – | – | CC(C)Nc1nc2cc(Cl)c(Cl)cc2n1[C@H]1O[C@@H](CO)[C@H](O)[C@@H]1O [ethanolate, 5,6-dichloro-2-(isopropylamino)-1-(β-L-ribofuranosyl)-1H-benzimidazole] | partially or completely converted to Form VI
essentially non-hygroscopic | 0.3 | not more than 0.3 % by weight (w/w) | most thermodynamically stable form | CC(C)Nc1nc2cc(Cl)c(Cl)cc2n1[C@H]1O[C@@H](CO)[C@H](O)[C@@H]1O [Form VI, 5,6-dichloro-2-(isopropylamino)-1-(β-L-ribofuranosyl)-1H-benzimidazole] | –
